Laboratory results as given in BigSolDB 2.1.

CCCSc1nc(N[C@@H]2C[C@H]2c2ccc(F)c(F)c2)c2nnn([C@@H]3C[C@H](OCCO)[C@@H](O)[C@H]3O)c2n1
solubility (mole fraction)
Conditions | 273.15 K | 278.15 K | 283.15 K | 288.15 K | 293.15 K | 298.15 K | 303.15 K | 308.15 K | 313.15 K
in ethyl acetate | 0.00246 | 0.00306 | 0.00399 | 0.00496 | 0.00602 | 0.00717 | 0.00899 | 0.0112 | 0.0139
in isopropanol | 0.00074 | 0.00102 | 0.00138 | 0.00213 | 0.00304 | 0.00415 | 0.00571 | 0.00785 | 0.0112
in isopropyl acetate | 0.0011 | 0.00136 | 0.00171 | 0.00205 | 0.00243 | 0.00295 | 0.00355 | 0.0045 | 0.00545
in n-butanol | 0.00106 | 0.00155 | 0.0021 | 0.00278 | 0.00371 | 0.00476 | 0.00633 | 0.00826 | 0.0114
in n-propanol | 0.00212 | 0.00288 | 0.00387 | 0.00513 | 0.00683 | 0.00958 | 0.0128 | 0.0165 | 0.0222
in sec-butanol | 0.000855 | 0.00116 | 0.00181 | 0.00249 | 0.00359 | 0.00494 | 0.00693 | 0.00992 | 0.0137
